Experimental findings from patent US8765702B2, “Composition and methods for modulating cell proliferation and cell death” (Rosetta Genomics Ltd., priority 2007, dated 2014) are described below.

Data set [1] has as its system p53 binding to the pm34a-EST p53BS. Briefly: Chromatin immunoprecipitation (ChIP). The format is cell-based, human. The settings on record: HCT116 cells, 50 μg/ml 5-FU for 16 hours. The procedure:
(A) HCT116 cells stably expressing shRNA specific for p53 (sip53) or for LacZ (siLacZ) were either left untreated or treated for 16 hours with 50 μg/ml 5-FU, and then subjected to ChIP analysis with antibodies directed against p53 or HA as a control. The precipitated DNA was subjected to quantitative real-time PCR analysis with primers spanning the 5′ p53BS of the p21 gene, the putative p53BS of the pm34a-EST, or the GAPDH gene as a negative control. (B) Schematic representation of the DNA fragment (thick bar) cloned into the luciferase reporter plasmid. The positions of the p53BS and exons 1 and 2 of the pm34a-EST are also indicated. (C) The putative promoter of the pm34a-EST was cloned upstream to the firefly luciferase reporter gene in the pGL3-basic vector to yield plasmid EST-Prom-luc. EST-Prom-luc was transfected into H1299 cells without or with the indicated amounts of p53 expression plasmid. Luciferase activity was then measured by the dual luciferase assay, and normalized for Renilla luciferase activity. […]
ChIP analysis was performed as described (Minsky, 2004), employing the CM1 p53-specific polyclonal antibody or anti-HA polyclonal antibody as a control. […] Quantification of precipitated DNA was preformed by real-time qPCR, using an ABI PRISM 7300 Sequence Detection System. […]

The subject of data set [2] is EST-Prom-luc (miR-34a putative promoter). Briefly: Dual luciferase assay with EST-Prom-luc in HCT116 cells. As to conditions: HCT116 control (siLacZ) cells, 5-FU for 16 hours. The data set is classed as cell-based, human.
Data set [3] concerns p53 mRNA and p21 mRNA in U2OS cells. Briefly: qRT-PCR analysis of p53 mRNA and p21 mRNA after Nutlin-3. The data set is classed as cell-based, human. As to conditions: 20 μM Nutlin-3 for 48 h, normalized to HPRT. The procedure: (A) HCT116 cells stably expressing shRNA against p53 (sip53) or LacZ (siLacZ) were either treated with 50 μg/ml 5-FU for 16 h or left untreated. […] total RNA from each sample was subjected to qRT-PCR analysis of p21 mRNA. Results were normalized to HPRT expression in the same samples. (B) U2OS cells stably expressing shRNA against p53 (sip53) or LacZ (siLacZ) were either treated with 20 μM Nutlin-3 for 48 h or left untreated. RNA from each sample was subjected to qRT-PCR analysis of p53 mRNA and p21 mRNA. […] The modest increase in p53 mRNA (1.8 fold) has not been further investigated. (C) Western blot analysis of 20 μg total protein extracted from parallel cultures treated as in (A). […]
(§1) RNA quantification was performed by real-time qRT-PCR in an ABI PRISM 7300 Sequence Detection System (Applied Biosystems) with SYBR Green Master Mix (Applied Biosystems). For mRNA quantification, cDNA produced with random hexamers and MMLV reverse transcriptase (Promega) from 10 ng of total RNA was subjected to RT-PCR using super SYBR-green ready mix (Applied Biosystems) and specific DNA primers (Table 1 for the EST, Table 2 for p21, Hdm2, GAPDH and HPRT). […] Relative expression levels were determined by real-time qRT-PCR using super SYBR-green ready mix and specific primers (Ambion). Quantification was done using standard curves. […]
(Real-time PCR tracks product formation cycle by cycle.)

The subject of data set [4] is Notch pathway in MCF7 cells. The data set can be described thus: qRT-PCR of Notch pathway mRNAs (DLL1, Jag1, Notch1, Hey1). The format is cell-based, human. The method, then: (D) MCF7 cells were transfected with scramble or anti-miR-34a LNA oligos. 24 h post-transfection, 20 μM Nutlin-3 was added to the half of the samples for additional 48 h. RNA extraction and analysis was as in (B).
(§2) RNA quantification was performed by real-time qRT-PCR in an ABI PRISM 7300 Sequence Detection System (Applied Biosystems) with SYBR Green Master Mix (Applied Biosystems). For mRNA quantification, cDNA produced with random hexamers and MMLV reverse transcriptase (Promega) from 10 ng of total RNA was subjected to RT-PCR using super SYBR-green ready mix (Applied Biosystems) and specific DNA primers (Table 1 for the EST, Table 2 for p21, Hdm2, GAPDH and HPRT). For small RNAs (U6, 5S, microRNAs), 50 ng total RNA was converted to cDNA using specific primers for reverse transcription (Ambion) and MMLV reverse transcriptase. Relative expression levels were determined by real-time qRT-PCR using super SYBR-green ready mix and specific primers (Ambion). Quantification was done using standard curves. All reactions were performed in duplicate.

Another data set relates to U2OS cells. Briefly: Apoptosis by microscopy and FACS-based sub-G1 DNA content. The data set is classed as cell-based, human.
The test system of data set [5] is Notch pathway in A172 cells. The data set can be described thus: qRT-PCR of Notch pathway mRNAs (DLL1, Jag1, Notch1, Hey1). The data set is classed as cell-based. As to conditions: 72 hours after transfection; for mRNA levels of DLL1, Jag1 or Notch1: normalized to GAPDH. The method, then:
(B) A172 cells were transfected with either scrambled or anti-miR-34a LNA oligos. RNA was isolated 72 hours later, and subjected to qRT-PCR to determine relative levels of expression of DLL1, Jag1 and Notch1 (normalized to GAPDH).
(C) A172 cells were transfected with pcDNA3-pm34a-EST-MUT (MUT) or pcDNA3-pm34a-EST (EST). RNA extraction and analysis was as in (B).
as §2
A complementary, opposite effect on Hey1 expression was seen when miR-34a was over-expressed in A172 cells.

In a further data set the test system is Bcl-2. Briefly: Western blot analysis of Bcl-2 protein. The data set is classed as cell-based, human. The settings on record: H1299 or U2OS cells, 100 nM pre-miR-34a RNA oligonucleotides, three days post-transfection. The method, then:
(§3) (A) H1299 or U2OS cells were transiently transfected with 100 nM control scrambled RNA (cont) or pre-miR-34a RNA oligonucleotides (pre-34a, Ambion) using siPORT NeoFX transfection reagent (Ambion). Three days post-transfection, cell extracts were prepared. 30 μg of total protein was subjected to SDS-15% polyacrylamide gel electrophoresis followed by Western blot analysis with antibodies directed against GAPDH (MAB374, Chemicon) and Bcl-2 (C-2, Santa Cruz). (B) Total RNA was extracted from identical cultures as in (A) using the mirVana miRNA isolation kit (Ambion). RNA was converted to cDNA using random hexamers and MMLV reverse transcriptase (Promega). cDNA obtained from 10 ng total RNA was subjected to real-time PCR analysis using specific primers for Bcl-2 mRNA (forward primer—5′-[…]-3′ (SEQ ID NO: 42), reverse primer—5′-ATCAAACAGAGGCCGCATG-3′ (SEQ ID NO: 43) and super SYBR-green ready mix (Applied Biosystems) in an ABI PRISM 7300 Sequence Detection System (Applied Biosystems). Bcl-2 mRNA levels were normalized relative to GAPDH mRNA (forward primer—5′-[…]-3′ (SEQ ID NO: 44), reverse primer—5′-AAAAGCAGCCCTGGTGACC-3′) (SEQ ID NO: 45) in the same samples. RU=relative units. (C) 200 ng of total RNA obtained from (B) was subjected to quantitative real-time RT-PCR using primers for mature miR-34a. Values were normalized relative to U6 RNA levels in the same samples. […]
A general note: In western blotting, separated proteins are transferred to a membrane and probed.

Another data set concerns Bcl-2 mRNA. Briefly: Real-time PCR analysis of Bcl-2 mRNA. As to conditions: H1299 or U2OS cells, 100 nM pre-miR-34a RNA oligonucleotides, normalized to GAPDH mRNA. The format is cell-based, human. The procedure: as §3
Data set [6] concerns pm34a-EST, miR-34a and p21 mRNA in H1299-TS cells. The data set can be described thus: qRT-PCR of p53-dependent induction in the presence of cycloheximide. The data set is classed as cell-based, human. As to conditions: H1299-TS cells shifted to 32° C., 80 nM CHX. The procedure:
(A) H1299 and 111299-TS cells were either left untreated or supplemented with 80 nM cycloheximide (CHX) for 30 min before being shifted to either 37° C. or 32° C. Cells were then incubated for the indicated time periods with continuous exposure to the drug. RNA was isolated and subjected to qRT-PCR analysis with primers specific for pm34a-EST. Values were normalized for HPRT in the same samples. (B) H1299-TS cells were processed essentially as in (A), except that CHX was added only where indicated. RNA was subjected to qRT-PCR with primers specific for mature miR-34a. Values were normalized for U6 RNA in the same samples. (C) The same RNA samples as in (B) were subjected to qRT-PCR analysis with primers specific for p21 mRNA. […]
as §1

`O=c1[nH]cc(F)c(=O)[nH]1` [5-FU, 5 fluorouracil]: the “p53 binding to the pm34a-EST p53BS” value in [1] is listed as “further augmented”. Besides, the luciferase activity entry in data set [2] is “nearly twofold increase”.
Consider `COc1ccc(C2=N[C@@H](c3ccc(Cl)cc3)[C@@H](c3ccc(Cl)cc3)N2C(=O)N2CCNC(=O)C2)c(OC(C)C)c1` [Nutlin-3], for which, in data set [3], the “p21 mRNA increase” value is recorded as 10.3 fold and the “p53 mRNA increase” value stood at 1.8 fold. Also, the “Jag1 and Notch1 mRNA levels” value in data set [4] (20 μM Nutlin-3 for 48 h) is “induction”. In the data set with U2OS cells (U2OS cells, 20 μM Nutlin-3 for 48 hours), the apoptosis result was “enhanced apoptosis”.
Take “miR-34a: microRNA SEQ ID NO: 1; overexpressed via pcDNA3-pm34a-EST (A172) or pre-miR-34a RNA oligonucleotides, Ambion (Bcl-2 study) (UGGCAGUGUCUUAGCUGGUUGUU; listed as RNA, chemistry not fully specified; listed as Homo sapiens)”: in [5], the “expression of Hey1” value was “reduction in Hey1 mRNA” and the “mRNA levels of DLL1, Jag1 or Notch1” value is “absence of any change”. Also, the Bcl-2 protein result in the data set with Bcl-2 is given as “decreased”. For the same molecule, in the data set with Bcl-2 mRNA, the “Bcl-2 mRNA” value is listed as “without a measurable decrease”.
Consider `C[C@@H]1C[C@@H]([C@H](O)CC2CC(=O)NC(=O)C2)C(=O)[C@@H](C)C1` [CHX, cycloheximide], for which, in [6], the “induction of pm34a-EST or mature miR-34a” value is reported as “did not prevent the induction” and the “p21 mRNA induction” value was “nor did it affect”.
With “5′-aacaaccagctaagacactgcca-3′ (antisense AACAACCAGCTAAGACACTGCCA; LNA-modified, pattern not given here) [LNA anti-miR-34a]”, the “expression of Hey1 following p53 activation” value in data set [4] (20 μM Nutlin-3 for 48 h) is “stronger effect”. Further, the “expression of Hey1” value in data set [4] (versus scrambled LNA) and in data set [5] was “up-regulation” in each case. Also, the “mRNA levels of DLL1, Jag1 or Notch1” value in data set [4] (versus scrambled LNA) and in data set [5] was “no effect” each time. Moreover, in the data set with U2OS cells (U2OS cells stably expressing p53 shRNA (sip53)), the “protection from apoptosis in p53 knockdown cells” value was “not observed”. The spontaneous apoptosis entry with U2OS cells (U2OS cells, 100 nM LNA, versus scrambled oligonucleotide) is on record as “decrease in spontaneous apoptosis”. The “apoptosis due to Nutlin-3 treatment” value in the data set with U2OS cells (U2OS siLacZ cells, 100 nM LNA with 20 μM Nutlin-3 for 48 hours) is on record as “partial protection”.
